Test results as given in PubChem BioAssay AID2060900 (Molecular Pharmacology Branch, DTP, NCI, 2025).
pIC50: −log10 of the molar value.

Tested on: 521955-158-R2-J5-PDC complex spheroids, viability
Test: Anticancer human tumor 521955-158-R2-J5-PDC patient-derived pancreatic carcinoma cell line growth inhibition [RAS]
Settings: for pIC50: curve of first compound; for viability, T/C: stronger effect = lower value
Method in brief: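 Agents were tested in combination matrices in half-log decrements from a top concentration at or near clinical Cmax (10 microM if undetermined). Targets were multi-cell spheroids of tumour lines plus HUVEC and MSC stromal cells.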

[1] = second compound 0.000949 µM, first compound 0.00316 µM
[2] = second compound 0.000949 µM, first compound 0.01 µM
[3] = second compound 0.000949 µM, first compound 0.0316 µM
[4] = second compound 0.000949 µM, first compound 0.1 µM
[5] = second compound 0.000949 µM, first compound 0.316 µM
[6] = second compound 0.000949 µM, first compound 1 µM
[7] = second compound 0.003 µM, first compound 0.00316 µM
[8] = second compound 0.003 µM, first compound 0.01 µM
[9] = second compound 0.003 µM, first compound 0.0316 µM
[10] = second compound 0.003 µM, first compound 0.1 µM
[11] = second compound 0.003 µM, first compound 0.316 µM
[12] = second compound 0.003 µM, first compound 1 µM
[13] = second compound 0.00949 µM, first compound 0.00316 µM
[14] = second compound 0.00949 µM, first compound 0.01 µM
[15] = second compound 0.00949 µM, first compound 0.0316 µM
[16] = second compound 0.00949 µM, first compound 0.1 µM
[17] = second compound 0.00949 µM, first compound 0.316 µM
[18] = second compound 0.00949 µM, first compound 1 µM
[19] = second compound 0.03 µM, first compound 0.00316 µM
[20] = second compound 0.03 µM, first compound 0.01 µM
[21] = second compound 0.03 µM, first compound 0.0316 µM
[22] = second compound 0.03 µM, first compound 0.1 µM
[23] = second compound 0.03 µM, first compound 0.316 µM
[24] = second compound 0.03 µM, first compound 1 µM
[25] = second compound 0.0949 µM, first compound 0.00316 µM
[26] = second compound 0.0949 µM, first compound 0.01 µM
[27] = second compound 0.0949 µM, first compound 0.0316 µM
[28] = second compound 0.0949 µM, first compound 0.1 µM
[29] = second compound 0.0949 µM, first compound 0.316 µM
[30] = second compound 0.0949 µM, first compound 1 µM
[31] = second compound 0.3 µM, first compound 0.00316 µM
[32] = second compound 0.3 µM, first compound 0.01 µM
[33] = second compound 0.3 µM, first compound 0.0316 µM
[34] = second compound 0.3 µM, first compound 0.1 µM
[35] = second compound 0.3 µM, first compound 0.316 µM
[36] = second compound 0.3 µM, first compound 1 µM
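Also: compound exposure lasted seven days before the viability read.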
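For viability, T/C in this document: spheroids also contain HUVEC endothelial cells and mesenchymal stem cells as stroma.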

Compound `C=CC(=O)Nc1cc(Nc2nccc(-c3cn(C)c4ccccc34)n2)c(OC)cc1N(C)CCN(C)C` + CCn1c(-c2cc(N3CCN(C)CC3)cnc2C(C)OC)c2c3cc(ccc31)-c1csc(n1)CC(NC(=O)C1CC1C)C(=O)N1CCCC(N1)C(=O)OCC(C)(C)C2 has a pIC50 (second compound 0.000949 µM) of over 8.50, a pIC50 (second compound 0.003 µM) of over 8.50 and a pIC50 (second compound 0.00949 µM) of over 8.50. It also gave a pIC50 (second compound 0.03 µM) of over 8.50, a pIC50 (second compound 0.0949 µM) of over 8.50 and a pIC50 (second compound 0.3 µM) of over 8.50. The viability, T/C [1] was 44.6%, the viability, T/C [2] was 53.5% and the viability, T/C [3] was 38.4%. For the same compound, the viability, T/C [4] was 43.4%, the viability, T/C [5] was 35.7% and the viability, T/C [6] was 23.1%. For the same compound, the viability, T/C [7] was 40.9%, the viability, T/C [8] was 46.9% and the viability, T/C [9] was 50.2%. It also gave a viability, T/C [10] of 43.5%, a viability, T/C [11] of 35.3% and a viability, T/C [12] of 18.7%. It also gave a viability, T/C [13] of 41.3%, a viability, T/C [14] of 39.6% and a viability, T/C [15] of 27.2%. It also gave a viability, T/C [16] of 31.3%, a viability, T/C [17] of 21.5% and a viability, T/C [18] of 8.47%. It also gave a viability, T/C [19] of 19.2%, a viability, T/C [20] of 23.2% and a viability, T/C [21] of 19.4%. For the same compound, the viability, T/C [22] was 18.8%, the viability, T/C [23] was 14.4% and the viability, T/C [24] was 5.46%. The viability, T/C [25] was 16%, the viability, T/C [26] was 9.37% and the viability, T/C [27] was 12.8%. It also gave a viability, T/C [28] of 8.37%, a viability, T/C [29] of 11.6% and a viability, T/C [30] of 2.68%. For the same compound, the viability, T/C [31] was 16.4%, the viability, T/C [32] was 10.6% and the viability, T/C [33] was 9.7%. The viability, T/C [34] was 8.57%, the viability, T/C [35] was 6.24% and the viability, T/C [36] was 3.02%.
`CC(Nc1ccc2c(c1)OCCn1cc(N3C(=O)OCC3C(F)F)nc1-2)C(N)=O` (stereo unspecified) + CCn1c(-c2cc(N3CCN(C)CC3)cnc2C(C)OC)c2c3cc(ccc31)-c1csc(n1)CC(NC(=O)C1CC1C)C(=O)N1CCCC(N1)C(=O)OCC(C)(C)C2 was tested, and the pIC50 (second compound 0.000949 µM) was over 7.50, the pIC50 (second compound 0.003 µM) was over 7.50 and the pIC50 (second compound 0.00949 µM) was over 7.50. The pIC50 (second compound 0.03 µM) was over 7.50, the pIC50 (second compound 0.0949 µM) was over 7.50 and the pIC50 (second compound 0.3 µM) was over 7.50. For the same compound, the viability, T/C [3] was 31.7%, the viability, T/C [4] was 24.1% and the viability, T/C [5] was 21.9%. The viability, T/C [6] was 13.8%, the viability, T/C (second compound 0.000949 µM, first compound 3.16 µM) was 14.3% and the viability, T/C (second compound 0.000949 µM, first compound 10 µM) was 11.4%. The viability, T/C [9] was 32.7%, the viability, T/C [10] was 22.1% and the viability, T/C [11] was 20.1%. The viability, T/C [12] was 13.7%, the viability, T/C (second compound 0.003 µM, first compound 3.16 µM) was 8.65% and the viability, T/C (second compound 0.003 µM, first compound 10 µM) was 7.85%. The viability, T/C [15] was 31.2%, the viability, T/C [16] was 21.7% and the viability, T/C [17] was 11.8%. For the same compound, the viability, T/C [18] was 8.38%, the viability, T/C (second compound 0.00949 µM, first compound 3.16 µM) was 7.16% and the viability, T/C (second compound 0.00949 µM, first compound 10 µM) was 4.66%. It also gave a viability, T/C [21] of 12.8%, a viability, T/C [22] of 10.3% and a viability, T/C [23] of 11.4%. For the same compound, the viability, T/C [24] was 3.73%, the viability, T/C (second compound 0.03 µM, first compound 3.16 µM) was 6.17% and the viability, T/C (second compound 0.03 µM, first compound 10 µM) was 1.25%. For the same compound, the viability, T/C [27] was 7.65%, the viability, T/C [28] was 6.24% and the viability, T/C [29] was 4.21%. It also gave a viability, T/C [30] of 1.25%, a viability, T/C (second compound 0.0949 µM, first compound 3.16 µM) of 5.01% and a viability, T/C (second compound 0.0949 µM, first compound 10 µM) of 1.25%. The viability, T/C [33] was 10.2%, the viability, T/C [34] was 6.36% and the viability, T/C [35] was 5.9%. It also gave a viability, T/C [36] of 3.16%, a viability, T/C (second compound 0.3 µM, first compound 3.16 µM) of 3.15% and a viability, T/C (second compound 0.3 µM, first compound 10 µM) of 0.45%.
In the case of `O=C(c1ccc(F)c(F)c1Nc1ccc(I)cc1F)N1CC(O)([C@@H]2CCCCN2)C1` + CCn1c(-c2cc(N3CCN(C)CC3)cnc2C(C)OC)c2c3cc(ccc31)-c1csc(n1)CC(NC(=O)C1CC1C)C(=O)N1CCCC(N1)C(=O)OCC(C)(C)C2, the pIC50 (second compound 0.000949 µM) was 7.68, the pIC50 (second compound 0.003 µM) was over 8.50 and the pIC50 (second compound 0.00949 µM) was over 8.50. The pIC50 (second compound 0.03 µM) was over 8.50, the pIC50 (second compound 0.0949 µM) was over 8.50 and the pIC50 (second compound 0.3 µM) was over 8.50. It also gave a viability, T/C [1] of 59.3%, a viability, T/C [2] of 50.1% and a viability, T/C [3] of 49.4%. It also gave a viability, T/C [4] of 38.6%, a viability, T/C [5] of 26.4% and a viability, T/C [6] of 24.1%. For the same compound, the viability, T/C [7] was 41.5%, the viability, T/C [8] was 46.7% and the viability, T/C [9] was 39%. It also gave a viability, T/C [10] of 26.8%, a viability, T/C [11] of 20.1% and a viability, T/C [12] of 17.4%. It also gave a viability, T/C [13] of 32.3%, a viability, T/C [14] of 32.1% and a viability, T/C [15] of 29.2%. The viability, T/C [16] was 17.4%, the viability, T/C [17] was 17.8% and the viability, T/C [18] was 15%. It also gave a viability, T/C [19] of 23.7%, a viability, T/C [20] of 18.3% and a viability, T/C [21] of 14.9%. It also gave a viability, T/C [22] of 10.8%, a viability, T/C [23] of 10.3% and a viability, T/C [24] of 6.61%. It also gave a viability, T/C [25] of 8.68%, a viability, T/C [26] of 11.3% and a viability, T/C [27] of 12.6%. It also gave a viability, T/C [28] of 8.23%, a viability, T/C [29] of 9.48% and a viability, T/C [30] of 7.34%. The viability, T/C [31] was 12.8%, the viability, T/C [32] was 7.85% and the viability, T/C [33] was 6.59%. It also gave a viability, T/C [34] of 9.27%, a viability, T/C [35] of 7.62% and a viability, T/C [36] of 6.97%.
